Laboratory results reported in ChEMBL document CHEMBL3399939, “Synthetic studies of five-membered heteroaromatic derivatives as potassium-competitive acid blockers (P-CABs)” (Bioorg Med Chem Lett, 2015).

Key:
[1] = Lipophilicity, log D of the compound; format: physicochemical; details: octanol/water
[2] = Inhibition of K+-stimulated H(+)/K(+) ATPase in porcine gastric mucosal microsomal fraction assessed as reduction in inorganic phosphate release incubated at 37 degC for 30 mins in presence of ATP by malachine green dye based colorimetry; format: microsomes, Sus scrofa, Gastric mucosa
[3] = organism: Sus scrofa; test: Inhibition of K+-stimulated H(+)/K(+) ATPase in porcine gastric mucosal microsomal fraction assessed as reduction in inorganic phosphate release at 10 uM incubated at 37 degC for 30 mins in presence of ATP by malachine green dye based colorimetry; format: microsomes; details: Gastric mucosa

SMILES | logD [1] | IC50 [2] | inhibition [3]
CNCc1cc(S(=O)(=O)c2ccccc2)c(-c2ccccc2)o1 | 1.8 | 1 µM | 
CNCc1cc(S(=O)(=O)c2ccccc2)c(-c2ccccc2)s1 | 1.9 | 0.15 µM | 
CNCc1cn(S(=O)(=O)c2ccc(C)cc2)c(-c2ccccc2)n1 | 0 | 0.099 µM | 
CNc1nc(-c2ccccc2)c(S(=O)(=O)c2ccccc2)s1 |  |  | 3.6%
CNCc1cc(-c2ccccc2)c(S(=O)(=O)c2ccccc2)s1 | 2.1 | 0.052 µM | 
CNCc1nc(-c2ccccc2)c(S(=O)(=O)c2ccccc2)s1 | 2.1 | 0.17 µM | 
CNCc1nc(S(=O)(=O)c2ccccc2)c(-c2ccccc2)s1 |  |  | 2%
CNCc1cc(-c2ccccc2)c(S(=O)(=O)c2ccc(C)cc2)o1 |  |  | 33.2%
CNCc1cc(S(=O)(=O)c2ccccc2)n(-c2ccccc2)n1 | 1.1 | 0.068 µM | 
CNCc1cc(S(=O)(=O)c2ccccc2)c(-c2ccccc2)[nH]1 |  |  | 19.8%
CCNc1nc(-c2ccccc2)c(S(=O)(=O)c2ccccc2)s1 |  |  | 6.9%
CNCc1cc(S(=O)(=O)c2ccccc2)n(-c2ccccc2)c1 | 0.4 | 0.13 µM | 
